# Where two headings read alike, the source gives them in different places.
# Experiments:
# AMES Test = assay type: cell-based
# D3 = D3 (Homo sapiens, UniProt P35462); experiment: D3 binding (Ki)
# 5HT2B = 5HT2B (Homo sapiens, UniProt P41595); experiment: Functional activity IC50 (5HT2B antagonist); assay type: cell-based
# 5HT2A [1] = target: T1, 5HT2A (Homo sapiens, UniProt P28223); experiment: 5HT2A binding (Ki)
# % Protein Binding = assay type: in vitro ADME
# Rat pK = conditions: in vivo; for bioavailability: read-out: Rat pK: % F
# 5HT1A [2] = target: T2, 5HT1A (Homo sapiens, UniProt P08908); experiment: 5HT1A binding (Ki)
# T2 sequence (P08908 1-422): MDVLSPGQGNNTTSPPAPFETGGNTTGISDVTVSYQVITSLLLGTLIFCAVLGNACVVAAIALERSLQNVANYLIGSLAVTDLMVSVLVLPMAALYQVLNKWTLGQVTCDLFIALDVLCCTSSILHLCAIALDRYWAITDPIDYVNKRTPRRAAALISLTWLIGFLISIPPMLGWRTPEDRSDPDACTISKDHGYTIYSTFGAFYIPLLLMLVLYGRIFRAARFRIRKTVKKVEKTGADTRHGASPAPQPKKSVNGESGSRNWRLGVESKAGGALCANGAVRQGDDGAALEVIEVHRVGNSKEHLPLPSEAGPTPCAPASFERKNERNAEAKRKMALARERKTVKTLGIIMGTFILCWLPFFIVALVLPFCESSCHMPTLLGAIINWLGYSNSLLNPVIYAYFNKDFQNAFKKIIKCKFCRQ
# hERG = hERG (Homo sapiens, UniProt Q12809); experiment: hERG % inhibition at 1 uM
# 5HT1A [3] = target: T2, 5HT1A; experiment: Functional activity 5HT1A; assay type: cell-based
# s 1 = s 1 (Homo sapiens, UniProt Q99720); experiment: s 1 binding (Ki)
# D2L = D2L (Homo sapiens, UniProt P14416); experiment: Functional activity D2L; assay type: cell-based
# 5HT2A [4] = target: T1, 5HT2A; experiment: Functional activity 5HT2A; assay type: cell-based
# IP3 = experiment: IC50 (IP3); assay type: cell-based
# D2S [5] = target: T3, D2S (Homo sapiens, UniProt P14416); experiment: D2S binding (Ki)
# D4.4 = target: T4, D4.4 (Homo sapiens, UniProt P21917); experiment: D4.4 binding (Ki)
# T4 sequence (P21917 1-419): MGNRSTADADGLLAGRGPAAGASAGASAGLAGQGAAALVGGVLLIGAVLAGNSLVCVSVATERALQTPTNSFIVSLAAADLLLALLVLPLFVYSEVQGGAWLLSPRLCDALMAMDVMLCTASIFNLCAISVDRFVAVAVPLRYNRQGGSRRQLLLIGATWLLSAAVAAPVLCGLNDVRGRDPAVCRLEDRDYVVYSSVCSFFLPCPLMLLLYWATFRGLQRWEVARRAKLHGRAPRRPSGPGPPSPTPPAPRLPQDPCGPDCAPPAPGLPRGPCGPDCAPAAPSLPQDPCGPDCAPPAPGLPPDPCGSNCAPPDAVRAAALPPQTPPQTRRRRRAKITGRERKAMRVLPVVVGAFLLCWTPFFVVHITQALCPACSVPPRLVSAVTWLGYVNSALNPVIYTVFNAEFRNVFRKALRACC
# D2S [6] = target: T3, D2S; experiment: Functional activity D2S; assay type: cell-based
# Na chan = experiment: Na channel binding (Ki)
# Mouse pK = conditions: in vivo
# D1 = D1 (Homo sapiens, UniProt P21728); experiment: D1 binding (Ki)
# HLM T1/2 = conditions: human, liver microsomes
# D2 = D2 (Homo sapiens, UniProt P14416); experiment: Functional activity D2 (agonist / antagonist); assay type: cell-based
# [7] = iv, read-out: Rat pK: T1/2 (iv)
# [8] = po, read-out: Rat pK: T1/2 (po)
# T3 sequence (P14416 1-414 isoform P14416-2): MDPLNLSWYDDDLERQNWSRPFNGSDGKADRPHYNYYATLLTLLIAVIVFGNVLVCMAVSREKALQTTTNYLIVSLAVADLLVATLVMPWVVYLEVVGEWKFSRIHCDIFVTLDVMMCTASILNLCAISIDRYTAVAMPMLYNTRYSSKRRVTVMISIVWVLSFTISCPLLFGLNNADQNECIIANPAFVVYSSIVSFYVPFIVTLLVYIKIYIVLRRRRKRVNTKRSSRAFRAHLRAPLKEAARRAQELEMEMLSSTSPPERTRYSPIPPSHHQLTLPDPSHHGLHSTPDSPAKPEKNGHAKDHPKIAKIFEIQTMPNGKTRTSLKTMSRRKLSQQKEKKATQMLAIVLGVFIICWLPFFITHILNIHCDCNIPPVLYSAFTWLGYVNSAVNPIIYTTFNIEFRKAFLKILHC
# 5HT2B, sequence (P41595 whole entry, species assumed): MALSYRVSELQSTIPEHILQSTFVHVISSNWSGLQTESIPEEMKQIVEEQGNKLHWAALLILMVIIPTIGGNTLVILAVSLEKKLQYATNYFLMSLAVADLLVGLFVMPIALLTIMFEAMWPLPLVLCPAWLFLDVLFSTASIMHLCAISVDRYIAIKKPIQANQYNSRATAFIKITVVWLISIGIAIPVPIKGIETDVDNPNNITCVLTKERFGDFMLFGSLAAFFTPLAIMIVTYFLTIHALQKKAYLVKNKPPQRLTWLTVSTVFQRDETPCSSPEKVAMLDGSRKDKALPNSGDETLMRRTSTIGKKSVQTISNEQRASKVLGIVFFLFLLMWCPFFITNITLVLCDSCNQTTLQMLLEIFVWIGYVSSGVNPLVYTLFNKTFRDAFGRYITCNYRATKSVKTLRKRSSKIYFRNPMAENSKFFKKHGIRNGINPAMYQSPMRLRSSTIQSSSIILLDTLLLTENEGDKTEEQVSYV
# hERG, sequence (Q12809 whole entry): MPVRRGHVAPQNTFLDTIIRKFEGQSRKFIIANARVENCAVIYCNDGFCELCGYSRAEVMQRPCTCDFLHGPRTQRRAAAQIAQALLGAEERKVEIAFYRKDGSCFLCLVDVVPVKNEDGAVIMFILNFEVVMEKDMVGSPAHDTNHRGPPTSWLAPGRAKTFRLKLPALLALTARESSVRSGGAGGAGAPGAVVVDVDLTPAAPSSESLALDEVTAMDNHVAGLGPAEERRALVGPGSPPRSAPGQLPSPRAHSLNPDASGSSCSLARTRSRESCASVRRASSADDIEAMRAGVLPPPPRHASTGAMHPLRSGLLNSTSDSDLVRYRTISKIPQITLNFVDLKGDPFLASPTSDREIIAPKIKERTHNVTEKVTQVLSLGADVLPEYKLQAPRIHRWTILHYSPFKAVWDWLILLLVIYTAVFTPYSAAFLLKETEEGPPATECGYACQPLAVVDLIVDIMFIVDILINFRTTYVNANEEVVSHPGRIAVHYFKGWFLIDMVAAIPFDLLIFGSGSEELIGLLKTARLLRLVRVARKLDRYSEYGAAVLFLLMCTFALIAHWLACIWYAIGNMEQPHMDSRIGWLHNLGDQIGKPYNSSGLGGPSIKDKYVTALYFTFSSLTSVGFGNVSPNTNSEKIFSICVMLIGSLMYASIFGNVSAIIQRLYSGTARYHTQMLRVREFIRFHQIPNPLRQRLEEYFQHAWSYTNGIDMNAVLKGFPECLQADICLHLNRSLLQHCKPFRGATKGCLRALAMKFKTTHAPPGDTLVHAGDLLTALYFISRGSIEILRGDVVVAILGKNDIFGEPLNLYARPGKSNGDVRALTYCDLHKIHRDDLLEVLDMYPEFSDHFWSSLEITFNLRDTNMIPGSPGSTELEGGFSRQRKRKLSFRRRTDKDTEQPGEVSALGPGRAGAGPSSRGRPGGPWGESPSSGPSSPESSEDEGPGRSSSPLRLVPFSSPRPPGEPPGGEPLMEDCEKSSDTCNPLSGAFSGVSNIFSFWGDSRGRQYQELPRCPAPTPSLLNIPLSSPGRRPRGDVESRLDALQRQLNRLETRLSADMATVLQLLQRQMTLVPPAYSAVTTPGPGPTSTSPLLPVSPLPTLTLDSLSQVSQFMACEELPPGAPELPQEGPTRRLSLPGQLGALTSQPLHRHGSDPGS
# T1 sequence (P28223 whole entry, species assumed): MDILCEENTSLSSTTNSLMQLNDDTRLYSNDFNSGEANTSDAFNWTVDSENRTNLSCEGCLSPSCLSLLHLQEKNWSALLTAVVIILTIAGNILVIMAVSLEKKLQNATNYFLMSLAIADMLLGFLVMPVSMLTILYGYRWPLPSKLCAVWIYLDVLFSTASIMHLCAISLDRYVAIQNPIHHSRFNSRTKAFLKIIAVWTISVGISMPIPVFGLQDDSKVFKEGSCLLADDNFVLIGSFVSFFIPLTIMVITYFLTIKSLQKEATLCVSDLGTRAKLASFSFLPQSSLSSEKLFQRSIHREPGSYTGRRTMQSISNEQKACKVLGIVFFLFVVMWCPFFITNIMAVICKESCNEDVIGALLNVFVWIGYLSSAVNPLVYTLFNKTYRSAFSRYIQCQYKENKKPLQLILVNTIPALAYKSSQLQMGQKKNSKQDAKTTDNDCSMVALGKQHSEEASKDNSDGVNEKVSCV
# s 1, sequence (Q99720 whole entry): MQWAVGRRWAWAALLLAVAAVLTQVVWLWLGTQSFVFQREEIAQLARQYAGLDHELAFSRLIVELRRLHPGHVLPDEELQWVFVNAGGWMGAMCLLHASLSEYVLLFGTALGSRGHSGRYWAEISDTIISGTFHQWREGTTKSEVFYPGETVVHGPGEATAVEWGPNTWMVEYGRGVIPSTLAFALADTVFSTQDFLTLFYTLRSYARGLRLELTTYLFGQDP
# D2, sequence (P14416 whole entry): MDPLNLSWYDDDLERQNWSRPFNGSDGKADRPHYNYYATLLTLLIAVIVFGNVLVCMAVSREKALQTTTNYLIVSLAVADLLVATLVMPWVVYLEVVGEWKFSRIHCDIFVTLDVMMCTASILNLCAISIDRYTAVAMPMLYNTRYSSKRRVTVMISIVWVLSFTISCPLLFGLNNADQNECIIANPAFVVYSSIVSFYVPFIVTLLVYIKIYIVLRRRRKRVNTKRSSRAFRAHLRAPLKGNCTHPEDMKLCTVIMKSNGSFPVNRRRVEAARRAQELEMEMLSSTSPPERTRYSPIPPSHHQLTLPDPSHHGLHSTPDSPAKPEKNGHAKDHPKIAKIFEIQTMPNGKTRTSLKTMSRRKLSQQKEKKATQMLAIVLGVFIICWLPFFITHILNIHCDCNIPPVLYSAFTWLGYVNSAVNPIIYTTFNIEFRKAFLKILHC
# D3, sequence (P35462 whole entry): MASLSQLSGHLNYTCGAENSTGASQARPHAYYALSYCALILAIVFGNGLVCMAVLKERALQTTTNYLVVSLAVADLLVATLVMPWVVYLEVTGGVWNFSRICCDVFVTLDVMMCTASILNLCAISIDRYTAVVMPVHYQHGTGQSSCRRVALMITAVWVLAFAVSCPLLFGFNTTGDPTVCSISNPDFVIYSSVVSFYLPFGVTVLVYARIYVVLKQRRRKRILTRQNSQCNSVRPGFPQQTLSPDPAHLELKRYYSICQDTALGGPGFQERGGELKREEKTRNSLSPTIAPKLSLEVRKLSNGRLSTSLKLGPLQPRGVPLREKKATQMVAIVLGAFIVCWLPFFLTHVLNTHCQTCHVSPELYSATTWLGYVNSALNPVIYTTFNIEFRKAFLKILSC
# D2L, sequence (P14416 whole entry): as the sequence (P14416 whole entry) above
# D1, sequence (P21728 whole entry): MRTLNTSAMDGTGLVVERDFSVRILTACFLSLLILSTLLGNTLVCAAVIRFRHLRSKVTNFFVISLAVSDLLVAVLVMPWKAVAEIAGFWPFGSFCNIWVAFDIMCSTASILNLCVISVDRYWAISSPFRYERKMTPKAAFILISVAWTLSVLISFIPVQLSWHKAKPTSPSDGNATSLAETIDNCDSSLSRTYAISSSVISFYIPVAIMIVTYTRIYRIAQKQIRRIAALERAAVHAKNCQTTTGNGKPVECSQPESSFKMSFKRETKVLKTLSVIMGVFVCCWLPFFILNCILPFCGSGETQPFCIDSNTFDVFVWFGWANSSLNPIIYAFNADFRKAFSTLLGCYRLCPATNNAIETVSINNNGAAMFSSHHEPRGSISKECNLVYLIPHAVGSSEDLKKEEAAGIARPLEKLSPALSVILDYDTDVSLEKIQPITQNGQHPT
SMILES,AMES Test (AMES Test),Ki (D3) [µM],IC50 (5HT2B) [µM],fraction unbound (% Protein Binding),half-life (Rat pK; [7]) [min],bioavailability (Rat pK; po) [%],half-life (Rat pK; [8]) [min],Ki (5HT1A [2]) [µM],hERG (% Inhibition at 1 uM) (hERG) [%],Ki (s 1) [µM],IC50 (IP3) [µM],Ki (D4.4) [µM],Ki (Na chan) [µM],further results
"Fc1cccc(CN2CCC(Nc3ncnc4sc(Cl)cc34)CC2)c1.O=C(O)/C=C\C(=O)O [Example B42, N-(1-(3-fluorobenzyl)piperidin-4-yl)-6-chlorothieno[2,3-d]pyrimidin-4-amine, monomaleate]",Negative,0.026,0.11,0.017,24,22.4,72,0.017,50.1,0.0067,0.0017,0.0047,0.25,Ki (5HT2A [1]): 0.052 µM; Functional Activity IC50 (5HT1A) (5HT1A [3]): Not Active; IC50 (D2L): 0.162 µM; IC50 (5HT2A [4]): 0.34 µM; Ki (D2S [5]; NA: Not Active): 0.17 µM; IC50 (D2S [6]): 0.292 µM
"N#Cc1cccc(CN2CCC(Nc3ncnc4sc(Cl)cc34)CC2)c1 [Example B43, 3-((4-(6-chlorothieno [2,3-d]pyrimidin-4-ylamino)piperidin-1-yl)methyl) benzonitrile, monomaleate]",Negative,1.3,0.0175,0.018,44.4,17.2,91.8,0.28,47.3,0.011,0.00148,0.025,0.97,"bioavailability (Mouse pK; ip, read-out: Mouse pK: % F): 87%; half-life (Mouse pK; ip, read-out: Mouse pK: T1/2 (ip)): 30 min; half-life (Mouse pK; iv, read-out: Mouse pK: T1/2 (iv)): 26 min; Ki (D1): 1.2 µM; half-life (HLM T1/2): 22 min; EC50 (D2; agonist): 0.92 µM; IC50 (D2) (D2; antagonist): No antagonist activity; Ki (D2S [5]): 1 µM"
